Test results from US4933356A, “Diflunisal potentiation of acetazolamide in the control of intraocular pressure” (Cornell Research Foundation, Inc., priority 1988, dated 1990).
“And” between values parts separate entries of the source, which are not always exact repeats. Equal entries are not always repeated. “Also recorded” adds a separate entry of the source. Where two headings read alike, the source gives them in different places.

Tests used:
[1] = test system: glaucoma patients; assay: Side effects in glaucoma patients after addition of diflunisal; conditions: acetazolamide plus diflunisal; severe nausea and extreme confusion
Protocol: (§3) All subjects taking part in this study participated voluntarily and an informed consent was obtained from each prior to their enrollment in the study. Forty-eight glaucoma patients (19 men and 29 women) on maximally tolerated antiglaucoma medications were assigned consecutively to the study. […] All eyes were treated with at least one preparation of topical antiglaucoma medications; pilocarpine (60 eyes), epinephrine or dipivefrin hydrochloride (27 eyes), timolol, levobunolol or betaxolol (80 eyes), and echothiophate iodide (17 eyes). Upon entering the study each patient received a full ophthalmologic examination which included a visual acuity determination, slitlamp examination, IOP measurement (baseline) with a Goldmann applanation tonometer, gonioscopy, and a dilated fundus examination. Patients were instructed to take oral diflunisal, 500 mg, twice daily for one week, while their regular antiglaucoma medications remained unchanged. A week later patients were examined again for visual acuity, slit lamp examination, IOP measurement and a history of side effects. Baseline and follow-up IOP was measured by the same investigator using the same tonometer at approximately the same time of day.

[2] = test system: glaucoma patients (intraocular pressure); assay: Change in intraocular pressure (IOP) in glaucoma patients after one week of added diflunisal; assay type: in vivo, human; conditions: for Change in IOP following diflunisal treatment: Table I, mean ± SD; for effect of diflunisal on hypotensive action / IOP (in words): diflunisal added to stated drug
Protocol: as §3

[3] = In vitro plasma binding of acetazolamide with graded concentrations of diflunisal (dialysis); assay type: in vitro ADME; conditions: human, 90 μM acetazolamide
Protocol: An in vitro study was performed for the effect of graded doses of diflunisal on the plasma binding of acetazolamide. Both drugs were added to plasma of a single non-glaucomatous individual and duplicate dialyses were done.
(§1) Acetazolamide was analyzed by assay against carbonic anhydrase (Maren, T. H., J. Pharmacol. Exp. Therap.. 130:26 (1960)). Dialysis was carried out in a specially constructed cell consisting of two chambers of 1 ml capacity separated by Spectra/Por membrane, MW cutoff 6,000-8,000, Spectrum Med. Industries. One ml plasma, after analysis for total drug, was introduced to one compartment and 1 ml physiological saline to the other. The solutions were each mixed for 18 hours at 25* and then analyzed and calculated for free and total drug.
^a In Vitro plasma binding of 90 μM acetazolamide in a single
individual ([…]) following graded concentrations of diflunisal.

[4] = Plasma unbound acetazolamide in patients by dialysis, before/after diflunisal; assay type: in vitro ADME; conditions: human, seven patients
Protocol: (§2) In 15 acetazolamide-treated patients 2-3 cc of venous blood was drawn before and again, at the same time of day, after one week on diflunisal for determination of total plasma concentration of acetazolamide. The blood sample underwent centrifugation at 5000 rpm for 5 minutes, and the plasma was separated and refrigerated until analysis. In addition, the plasma of seven of these 15 acetazolamide-treated patients was subjected to dialysis for determination of binding to albumin.
as §1

[5] = Plasma concentration of acetazolamide (total and free) in glaucoma patients, before/after diflunisal; assay type: in vivo, human; conditions: for concentration: 15 patients, read-out: total acetazolamide plasma level
Protocol: as §2
A blood sample was also taken from six acetazolamide-treated patients twice at a one week interval without diflunisal treatment.
as §1

[6] = Plasma protein binding (background and discussion); assay type: in vitro ADME; conditions: read-out: plasma albumin binding of acetazolamide (converted)
[7] = cited from earlier work
[8] = test system: human plasma protein; conditions: cited from earlier work
[9] = test system: prostaglandin synthesis (cyclooxygenase); conditions: at high doses; cited from earlier work
[10] = test system: normal volunteers (intraocular pressure); assay: Change in intraocular pressure in normal volunteers (control group) given diflunisal alone; assay type: in vivo, human; conditions: normal controls
Protocol: Eight normal volunteers (52.3±16.4 years) on no medications participated in this study as a control group to study the ocular hypotensive effect of diflunisal itself and were given oral diflunisal, 500 mg, twice daily for one week. The examinations before and after diflunisal were similarly taken as glaucoma patients described above.

[11] = in vivo; cited from earlier work
[12] = test system: plasma albumin / plasma protein; conditions: cited from earlier work
[13] = diflunisal 500 mg oral twice daily, one week, added to stated antiglaucoma medication

For `CC(=O)Nc1nnc(S(N)(=O)=O)s1` [Acetazolamide, 5-acetamido-1,3,4-thiadiazole-2-sulfonamide], the “patients dropped from study because of severe side effects” value [1] was “Two”, the “relationship between daily dosage of acetazolamide and IOP reduction” value ([2]; FIG. 1, after one week of diflunisal) was “no relationship between the daily dosage of acetazolamide and the IOP reduction” and the “Change in IOP following diflunisal treatment” value [2, 13] was -3.8 ± 3.1 mm Hg. The “effect of diflunisal on hypotensive action / IOP (in words)” value [2] was “significant decrease in IOP”, the fraction unbound at 18 h, 90 µM ([3]; diflunisal 0 μm) was 0.07 and the fraction unbound at 18 h, 90 µM ([3]; diflunisal 200 μm) was 0.14. It also gave a fraction unbound at 18 h, 90 µM ([3]; diflunisal 400 μm) of 0.22, a fraction unbound at 18 h, 90 µM ([3]; diflunisal 600 μm) of 0.26 and a fraction unbound at 18 h ([4]; after diflunisal) of 0.162 ± 0.087. The fraction unbound at 18 h ([4]; before diflunisal) was 0.043 ± 0.027, the concentration ([5]; after one week on diflunisal, P<0.015 vs baseline) was 31.8 ± 16.1 µM and the concentration ([5]; baseline before diflunisal) was 19.1 ± 9.1 µM. For the same compound, the “increase in free plasma levels of acetazolamide” value ([5]; addition of diflunisal) was 5.6 fold, the “increase in total plasma levels of acetazolamide” value ([5]; addition of diflunisal) was about 50% and the “free (unbound) acetazolamide plasma concentration” value ([5]; after diflunisal) was 5.6 ± 4.1 µM and 5.6 µM. The “free (unbound) acetazolamide plasma concentration” value ([5]; before diflunisal) was 1.0 ± 0.6 µM and 1.0 µM, the “change in total acetazolamide plasma level over one week” value ([5]; six patients without additional diflunisal, P≥0.05) was “no significant change” and the fraction unbound ([6]; reduced by diflunisal) was about 0.2. It also gave a fraction unbound ([6]; without diflunisal) of 0.03 to 0.07.

In the case of `O=C(O)c1cc(-c2ccc(F)cc2F)ccc1O` [Diflunisal, 2-(hydroxy)-5-(2,4-difluorophenyl) benzoic acid], the “time to steady state plasma levels” value ([7]; 500 mg twice daily) is given as 3 to 9 days, the “time to peak plasma levels” value ([7]; in vivo, po) is given as 2 to 3 h and the “absorption from the intestines” value ([7]; in vivo) is given as “well absorbed from the intestines”. For the same compound, the excretion ([7]; in vivo) was “excreted mostly in the urine as a glucuronide”, the “Change in IOP following diflunisal treatment” value ([2]; diflunisal 500 mg twice daily, one week, topically treated only, n = 22 eyes) was -0.7 ± 2.1 mm Hg and the “change in IOP after diflunisal (in words)” value ([2]; patients on topical medications alone, plus diflunisal) was “no significant change in IOP; also recorded: did not result in a significant reduction of IOP”. The “displacement of drugs from plasma protein” value [8] was “can unbind partially bound compounds such as salicylic acid and phenprocoumin”, the “displacement of drugs from plasma protein” value ([8]; listed as diflunisal) was “displace the following compounds from human plasma protein: salicylate and phenprocoumin” and the “inhibition of prostaglandin synthesis” value [9] was “inhibits prostaglandin synthesis”. For the same compound, the “Change in IOP following diflunisal treatment” value ([10]; Table I, diflunisal alone 500 mg twice daily, one week, n = 16 eyes, mean ± SD) was 0.0 ± 1.0 mm Hg, the “change in IOP after diflunisal (in words)” value ([10]; diflunisal alone) was “no significant change in IOP; also recorded: did not result in a significant reduction of IOP” and the “most frequent adverse reactions” value [11] was “nausea, gastrointestinal discomfort and diarrhea”. For the same compound, the tolerability versus aspirin [11] was “generally better tolerated than aspirin”.

With `CC(=O)/N=c1/sc(S(N)(=O)=O)nn1C` [Methazolamide] the “Change in IOP following diflunisal treatment” value [2, 13] was -1.6 ± 1.5 mm Hg, the “mean reduction of IOP” value ([2]; added diflunisal 500 mg twice daily, one week, vs baseline) was 1.6±1.5 mm Hg and the “effect of diflunisal on hypotensive action / IOP (in words)” value [2] was “did not result in a significant reduction of IOP; also recorded: did not affect the hypotensive action”. The plasma protein binding [12] was 55%.

In the case of `O=C(O)c1ccccc1O` [Salicylate, salicylic acid], the “unbinding of acetazolamide from plasma proteins” value [8] is listed as “unbind acetazolamide from plasma proteins”.
